{
  "source": "patent US8574893B2",
  "about": "“Nucleic acid cleavage complex and method for using the same” (National Cheng Kung University, priority 2010, dated 2013)",
  "test_system": "pST3 test vector",
  "test": "DNA cleavage test of the nucleic acid cleavage reagent in vitro",
  "format": "biochemical",
  "experimental": "First, the pST3 test vector of Test Example 1 is prepared. The abovementioned vector and the nucleic acid cleavage reagent (Cypate) are mixed in a molar ratio of 1:1000. […] Columns 5 and 6 of FIG. 5 show the position of the nucleic acid cleavage reagent (Cypate) in the gel.",
  "data": [
    {"compound": "CC1(C)C(/C=C/C=C/C=C/C=C2/N(CCC(=O)O)c3ccc4ccccc4c3C2(C)C)=[N+](CCC(=O)[O-])c2ccc3ccccc3c21", "note": "[Cypate, cypate]", "values": [
      {"measurement": "cleavage of the plasmid to nicked open-circular plasmid (Form II plasmid)", "setting": "vector:Cypate molar ratio 1:1000, irradiation for 5 mins, FIG. 5 column 8", "value": "partially cleaved"},
      {"measurement": "cleavage of the plasmid to nicked open-circular plasmid (Form II plasmid)", "setting": "vector:Cypate molar ratio 1:1000, irradiation for 10 mins, FIG. 5 column 10", "value": "completely cleaved"}
    ]}
  ]
}
